The nature of this data set: Determination of hygroscopic moisture. The format is physicochemical. Conditions: 25° C. thermostatic drier over saturated ammonium chloride solution, sodium salt. As to the method: Determination of hygroscopic moisture: 25±+1° C. Thermostatic Drier (with a saturated solution of ammonium chloride being placed at bottom of the drier).

Consider `COCCCOc1ccnc(C[S@@+]([O-])c2nc3ccccc3[n-]2)c1C.[Na+]` [Amorphous form, R-(+)-2-{[4-(3-methoxypropoxy)-3-methylpyrid-2-yl]methylsulfinyl}-1H-benzimidazole sodium salt, reference compound], for which the “Hygroscopic moisture (%)” value amounted to 6.60% (0 h), 21.60% (24 h) and 21.81% (48 h).

The values are drawn from patent US11078184B2, “Dexrabeprazole sodium compound and pharmaceutical composition thereof” (JIANGSU AOSAIKANG PHARMACEUTICAL CO., LTD., priority 2017, dated 2021).
